In patent US8507472B2 (priority 2010, dated 2013):
“And” between values parts separate entries of the source, which are not always exact repeats. Equal values may be shown once. Read-outs that look alike come from different tables or passages of the source.

Legend:
Phytophthora infestans = type: in vivo
Gibberella zeae = conditions: in vivo
Fusarium graminearum [1] = assay: microbe, parasite or virus in culture; type: cell-based
Botrytis cinerea = assay: Botrytis test (bean)/protective; type: in vivo; conditions: 100 ppm active compound, protective, evaluation 2 days after inoculation
Summary of the method: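 Protective spray test: leaves inoculated with two B. cinerea-colonized agar plugs after the spray dried, then incubated in darkness, ~20° C., 100% relative humidity. Formulation was acetone/dimethylacetamide with emulsifier, water-diluted. Lesion size rated 2 days post-inoculation as efficacy (0% matching control, 100% infection-free).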

Puccinia triticina = Puccinia triticina test (wheat)/protective; type: in vivo
Protocol: Solvent: 49 parts by weight of […]
(§1) Emulsifier: 1 part by weight of alkylaryl polyglycol ether
(§2) To produce a suitable preparation of active compound, 1 part by weight of active compound is mixed with the stated amounts of solvent and emulsifier, and the concentrate is diluted with water to the desired concentration.
(§3) To test for protective activity, young plants are sprayed with the active compound preparation at the stated application rate.
After the spray coating has dried on, the plants are sprayed with spores of a spore suspension of Puccinia triticina. The plants remain in an incubation cabin at 20° C. and 100% relative atmospheric humidity for 48 hours.
The plants are placed in greenhouse at a temperature of about 20° C. and a relative atmospheric humidity of about 80%.
Evaluation is carried out 8 days after the inoculation. 0% means an efficacy which corresponds to that of the control, whereas an efficacy of 100% means that no infection is observed.

Uromyces appendiculatus = assay: Uromyces test (bean)/protective; type: in vivo
Summary of the method: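 Young bean plants sprayed with compound formulated in acetone/dimethylacetamide with emulsifier, inoculated with Uromyces appendiculatus spores after drying, held 1 day at ~20 °C and 100% humidity, then greenhouse ~21 °C, ~90% humidity. Efficacy scored 10 days post-inoculation, 0% = untreated control, 100% = no infection.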

Fusarium graminearum [2] = type: in vivo
Pyricularia oryzae = conditions: in vivo
Pyrenophora teres = Pyrenophora teres test (barley)/protective; type: in vivo
Summary of the method: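 Efficacy, read 7-9 days after spore inoculation, runs from 0% (equal to untreated control) to 100% (no infection). Barley sprayed with water-diluted DMF/emulsifier formulation was inoculated one day later, incubated 48 h at 22° C. and 100% rel. humidity, then held at 20° C. and 80% humidity.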

Leptosphaeria nodorum = Leptosphaeria nodorum test (wheat)/protective; type: in vivo
Summary of the method: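 Young wheat plants were sprayed protectively, then inoculated 1 day later with L. nodorum spores and held 48 h at 100% humidity and 22° C. They were then kept in a greenhouse at 90% humidity and 22° C. Efficacy was scored 7-9 days post-inoculation, where 0% equals control and 100% means no infection.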

Venturia inaequalis = assay: Venturia test (apple)/protective; type: in vivo; conditions: 100 ppm active compound, protective, evaluation 10 days after inoculation
Summary of the method: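 Efficacy read 10 days after inoculation, where 100% is no infection and 0% matches untreated control. Plants kept 1 day at ~20° C and 100% relative humidity after conidia inoculation, then ~21° C and ~90% humidity; inoculation followed drying of a protective spray of compound formulated in acetone/dimethylacetamide plus emulsifier and diluted with water.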

Sphaerotheca fuliginea = assay: Sphaerotheca test (cucumber)/protective; type: in vivo
Summary of the method: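 Infection was rated 7 days after spore inoculation as % efficacy (0% = control level, 100% = no disease). Inoculation followed 1 day after preventive spray of young cucumbers with compound formulated in N,N-dimethylformamide plus emulsifier and diluted with water; plants were held at 23 °C and 70% relative humidity.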

Rhizoctonia solani = assay: Rhizoctonia test (rice)/protective; type: in vivo; conditions: 250 ppm active compound, protective, evaluation 4 days after inoculation
Protocol: Solvent: 28.5 parts by weight of acetone
Emulsifier: 1.5 parts by weight of alkylaryl polyglycol ether
To produce a suitable preparation of active compound, 1 part by weight of active compound is mixed with the stated amount of solvent, and the concentrate is diluted with water and the stated amount of emulsifier to the desired concentration.
To test for protective activity, young rice plants are sprayed with the active compound preparation at the stated application rate. 1 day after the treatment, the plants are inoculated with hyphae of Rhizoctonia solani. The plants are then placed in a greenhouse at 100% relative atmospheric humidity and 25° C.
Evaluation is carried out 4 days after the inoculation. 0% means an efficacy which corresponds to that of the control, whereas an efficacy of 100% means that no infection is observed.

Septoria tritici = Septoria tritici test (wheat)/protective; type: in vivo
Protocol: (§4) Solvent: 49 parts by weight of N,N-dimethylacetamide
as §1
To produce a suitable preparation of active compound, 1 part by weight of active compound is mixed with the stated amount of solvent and emulsifier, and the concentrate is diluted with water to the desired concentration.
To test for protective activity, young plants are sprayed with the active compound preparation at the stated application rate. After the spray coating has dried on, the plants are sprayed with a spore suspension of Septoria tritici. The plants remain in an incubation cabin at 20° C. and 100% relative atmospheric humidity for 48 hours. The plants are then placed under a translucent hood at 15° C. and 100% relative atmospheric humidity for a further 60 hours.
The plants are placed in a greenhouse at a temperature of about 15° C. and a relative atmospheric humidity of 80%.
Evaluation is carried out 21 days after the inoculation. 0% means an efficacy which corresponds to that of the control, whereas an efficacy of 100% means that no infection is observed.

Alternaria solani = assay: Alternaria test (tomato)/protective; type: in vivo
Summary of the method: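 Treatment was protective: spray application at the stated rate came one day before spore inoculation. Incubation was 24 h at 22 °C and 100% humidity, then 20 °C and 96% humidity. Infection was rated at day 7 as % efficacy against the control, with 100% meaning no disease.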

DON/AcDON production = assay: microbe, parasite or virus in culture; type: cell-based, Fusarium graminearum; conditions: 7 days at 28° C.
Cochliobolus miyabeanus = assay: Cochliobolus test (rice)/protective; type: in vivo; conditions: 250 ppm active compound, protective, evaluation 4 days after inoculation
[3] = tested on: Fusarium nivale (var. majus); assay: Fusarium nivale (var. majus) test (wheat)/protective; type: in vivo; conditions: 1000 ppm active compound, protective, evaluation 5 days after inoculation
Protocol: as §4, §1, §2, §3
After the spray coating has dried on, the plants are sprayed with spores of a spore suspension of Fusarium nivale (var. majus).
The plants are placed in a greenhouse chamber under a translucent incubation hood at 10° C. and 100% relative atmospheric humidity.
Evaluation is carried out 5 days after the inoculation. 0% means an efficacy which corresponds to that of the control, whereas an efficacy of 100% means that no infection is observed.

[4] = log P determination by HPLC retention times (alkan-2-one calibration)
[5] = 500 ppm active compound, tomato, protective, evaluation 7 days after inoculation

Row | Structure (SMILES) | efficacy in % (Phytophthora infestans; in vivo) [%] | % inhibition of the fungal growth of Fusarium graminearum at 50 μM (Fusarium graminearum [1]) [%] | efficacy in % (Botrytis cinerea) [%] | efficacy in % (Puccinia triticina; in vivo) | efficacy in % (Uromyces appendiculatus; in vivo) [%] | efficacy in % (Fusarium graminearum [2]; in vivo) [%] | efficacy in % (Pyricularia oryzae) [%] | efficacy in % (Pyrenophora teres; in vivo) [%] | efficacy in % (Leptosphaeria nodorum; in vivo) [%] | efficacy in % (Venturia inaequalis) [%] | efficacy in % (Sphaerotheca fuliginea; in vivo) [%] | efficacy in % (Rhizoctonia solani) [%] | efficacy in % (Septoria tritici; in vivo) [%] | efficacy in % (Alternaria solani; in vivo) [%] | % inhibition of DON/AcDON at 50 μM (DON/AcDON production) [%] | efficacy in % (Cochliobolus miyabeanus) [%] | efficacy in % [3] [%] | further results
1 | CC(C)CC(=O)Nc1cc(-c2c(-c3ccccc3)nn3c2CCCC3)ccn1 [Example 31] | 80 | 97 | 90 | 94% | 94 | 100 | 98 | 100 | 90 | 100 | 95 | 100 | 100 | 94 | 99 | 95 | 100 | efficacy in % (Gibberella zeae): 80%
2 | COC(=O)Nc1cc(-c2c(-c3ccc(F)cc3)nn3c2CCCC3)ccn1 [Example 26, Methyl{4-[2-(4-fluorophenyl)-4,5,6,7-tetrahydropyrazolo[1,5-a]pyridin-3-yl]-pyridin-2-yl}carbamate] |  |  | 93 |  |  |  |  |  |  | 93 |  |  |  |  |  |  | 86 | efficacy in % (Phytophthora infestans; [5]): 95%; inhibition at 50 µM (Fusarium graminearum [1]; Fusarium graminearum, 72 h, read-out: % inhibition of the fungal growth of Fusarium graminearum at 50 μM): 57%; efficacy in % (Puccinia triticina; 1000 ppm active compound, wheat, protective, evaluation 8 days after inoculation): 100%; efficacy in % (Uromyces appendiculatus; 100 ppm active compound, bean, protective, evaluation 10 days after inoculation): 94%; efficacy in % (Fusarium graminearum [2]; 1000 ppm active compound, barley, protective, evaluation 5 days after inoculation): 88%; efficacy in % (Pyrenophora teres; 500 ppm active compound, barley, protective, evaluation 7-9 days after inoculation): 95%; efficacy in % (Leptosphaeria nodorum; 500 ppm active compound, wheat, protective, evaluation 7-9 days after inoculation): 80%; efficacy in % (Sphaerotheca fuliginea; 500 ppm active compound, cucumber, protective, evaluation 7 days after inoculation): 98%; efficacy in % (Septoria tritici; 1000 ppm active compound, wheat, protective, evaluation 21 days after inoculation): 86%; efficacy in % (Alternaria solani; [5]): 100%; inhibition at 50 µM (DON/AcDON production; Fusarium graminearum, 168 h): 98%; chromatographic logP ([4]; log P(HCOOH), HCOOH, preparation examples in the text): 2.11; chromatographic logP ([4]; log P, values marked [a] in Table 1): 2.11; chromatographic logP ([4]; log P, values marked [b] in Table 1): 2.56
3 | CC(=O)Nc1cc(-c2c(-c3ccccc3)nn3c2CCCC3)ccn1 [Example 19] | 100 | 100 | 99 | 100% and 95% | 94 | 100 | 92 | 100 | 95 | 93 | 98 | 100 | 100 | 100 | 100 | 96 | 100 | 
4 | CC(C)CC(=O)Nc1cc(-c2c(-c3ccc(F)cc3)nn3c2CCCC3)ccn1 [Example 30] | 80 | 88 | 100 | 88% | 95 | 88 | 94 | 100 | 90 | 99 | 95 | 100 | 100 | 100 | 99 | 96 | 86 | 
5 | O=C(Nc1cc(-c2c(-c3ccccc3)nn3c2CCCC3)ccn1)C1CC1 [Example 21] | 90 | 97 | 98 | 95% | 94 | 100 | 98 | 100 | 95 | 99 | 100 | 100 | 100 | 100 | 100 | 96 | 100 | 
6 | O=C(Nc1cc(-c2c(-c3ccc(F)cc3)nn3c2CCCC3)ccn1)C1CC1 [Example 20] | 100 | 95 | 98 | 100% | 94 | 94 | 92 | 100 | 95 | 99 | 100 | 100 |  | 100 | 100 | 96 | 100 | 
7 | COCC(=O)Nc1cc(-c2c(-c3ccc(F)cc3)nn3c2CCCC3)ccn1 [Example 22] | 90 | 97 | 89 | 75% | 94 | 100 |  | 95 | 80 | 76 | 90 |  | 86 | 95 | 100 |  | 86 | 
8 | COCC(=O)Nc1cc(-c2c(-c3ccccc3)nn3c2CCCC3)ccn1 [Example 23] | 80 | 97 | 100 | 75% | 95 | 88 |  | 95 | 90 | 98 | 89 |  | 86 | 95 | 100 |  | 86 | 
